Measurements from US11730703B2, “Nanoparticles for treatment of posterior segment ocular diseases and conditions” (UNIVERSITY OF SOUTH FLORIDA, priority 2017, dated 2023).

Assays:
[1] = In vitro drug release (dialysis membrane tubing, PBS); format: physicochemical; conditions: FIG. 5
Protocol: (iii) In vitro Drug Release: The rate of TA release from the NPs was measured by adapting a previously reported method. 40 Dialysis membrane tubing, MWCO 10 000 Da. (Spectrum Laboratories, Rancho Dominguez, Calif.) was soaked in deionized H2O overnight. 1 ml of the NP suspension was added to the dialysis membrane tubing after being briefly sonicated and was placed into 100 ml of PBS covered and stirring at 100 rpm at 37° C. 1 mL samples were removed at predetermined intervals over 10 days and replaced with fresh PBS. Samples were analyzed using UV spectroscopy at a wavelength of 240 nm (lmax) and compared to standard dilutions of TA in PBS (r^2=0.989) to determine the percentage of drug released over 10 days.
500 μL of 1 mg/mL DIG sol and 500 μL of DIG NPs in (cellulose) dialysis membrane tubing
Samples were taken in 750 μL increments and the respective amount of PBS was re-added

ARPE-19 cells = assay: Cytotoxicity, MTT assay; format: cell-based, human; conditions: FIG. 6
Protocol: (iv) Cytotoxicity: The cytotoxicity of the TA Nanoparticles was assessed in ARPE-19 cells (cells of a human retinal pigment epithelial cell line) by the 3-(4,5-dimethylthiazol-2-yl)-2,5-diphenyltetrazolium bromide salt (MTT) assay. Briefly, cells were seeded in 24-well plates at a density of 5×10^4 cells/ml for 24 h to achieve confluency before treatment. […] Cell culture media were aspirated, and […] of MTT reagent solution (1 mg/ml) was added to each well. Cells were incubated at 37° C. and 5% CO2 for 4 h, after which the MTT reagent solution was aspirated and 1 mL of DMSO was added to each well. Plates were allowed to shake gently for 10 min before being read by Synergy H4 plate reader (Biotek Industries, Inc., Winooski, Vt.) at absorbance of 570 nm.
Media was removed and cells were washed with 500 μL of HBSS prior to treatment.
Cell Treatments • 3 control wells with 500 μL Experimental Media only • 3 wells with DIG sol at 0.5 μM and 1 μM concentrations: (0.5 μM: 9.76 μL DIG sol+490.24 μL Exp. Media) • (1 μM: 19.52 μL DIG sol+480.48 μL Exp. Media) • 3 wells with DIG NPs at 0.5 μM and 1 μM concentrations: (0.5 μM: 1.012 μL DIG NPs+[…] Exp. Media) • (1 μM: 2.024 μL DIG NPs+497.97 μL Exp. Media)
MTT Cell treatments: same as above w/o CoCl2 step
Prepare MTT reagent: 0.5 mg/mL (in basal media) and cover with aluminum foil
Remove media from each well and wash with HBSS […]

## C[C@H]1O[C@@H](O[C@H]2[C@@H](O)C[C@H](O[C@H]3[C@@H](O)C[C@H](O[C@H]4CC[C@@]5(C)[C@H](CC[C@@H]6[C@@H]5C[C@@H](O)[C@]5(C)[C@@H](C7=CC(=O)OC7)CC[C@]65O)C4)O[C@@H]3C)O[C@@H]2C)C[C@H](O)[C@@H]1O [digoxin]
[1]
  Drug release (in words): sustained therapeutic release
ARPE-19 cells
  Cell toxicity (in words): relatively low cell toxicity
